Read-outs that look alike come from different tables or passages of the source.
Columns and labels:
Format in all cases: cell-based
[1] = test system: IL-2 secretion from T cells in human whole blood; settings: read-out: WB (IL-2) IC50 (nM, Avg)
[2] = test system: IFN-g secretion from T cells in human whole blood; settings: read-out: WB (IFNg) IC50 (nM, Avg)
[3] = target: hKv1.3 (Homo sapiens, UniProt P22001); experiment: cell-based
hKv1.3, sequence (P22001 whole entry): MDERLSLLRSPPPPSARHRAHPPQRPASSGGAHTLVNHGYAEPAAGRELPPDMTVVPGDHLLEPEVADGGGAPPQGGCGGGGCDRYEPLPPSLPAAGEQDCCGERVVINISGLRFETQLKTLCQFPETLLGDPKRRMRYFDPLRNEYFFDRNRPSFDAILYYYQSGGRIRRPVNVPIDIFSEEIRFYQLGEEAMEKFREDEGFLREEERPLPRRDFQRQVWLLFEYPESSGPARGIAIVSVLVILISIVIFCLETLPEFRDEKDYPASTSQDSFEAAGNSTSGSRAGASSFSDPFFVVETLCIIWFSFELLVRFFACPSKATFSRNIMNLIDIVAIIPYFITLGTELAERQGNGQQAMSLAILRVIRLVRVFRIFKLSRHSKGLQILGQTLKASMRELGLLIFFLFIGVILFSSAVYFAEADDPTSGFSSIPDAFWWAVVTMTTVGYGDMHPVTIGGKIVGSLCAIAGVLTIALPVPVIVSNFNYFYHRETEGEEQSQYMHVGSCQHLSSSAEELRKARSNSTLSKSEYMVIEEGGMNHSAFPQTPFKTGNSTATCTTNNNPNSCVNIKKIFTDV

Work on `CCCC[C@@H]1NC(=O)[C@H](CO)NC(=O)[C@H](Cc2c[nH]cn2)NC(=O)[C@H](CCCCN)NC(=O)[C@@H]2CSSC[C@@H]3NC(=O)[C@H]([C@@H](C)O)NC(=O)[C@H](CCCNC(=N)N)NC(=O)[C@H](CCCCN)NC(=O)[C@H](CSSC[C@H](NC(=O)[C@H](CCCNC(=N)N)NC(=O)[C@H](CO)NC(=O)[C@H](CCCCN)NC(=O)[C@@H]4CCCN4C(=O)[C@H]([C@@H](C)CC)NC(=O)[C@H]([C@@H](C)O)NC(=O)[C@H](CC(=O)O)NC(=O)[C@H]([C@@H](C)CC)NC(=O)[C@@H](NC(=O)[C@H](CO)NC(=O)[C@@H](N)CCCNC(=N)N)CSSC[C@@H](C(N)=O)NC(=O)[C@H]([C@@H](C)O)NC(=O)CNC3=O)C(=O)N[C@@H]([C@@H](C)O)C(=O)N[C@@H](C)C(=O)N[C@@H](Cc3ccccc3)C(=O)N[C@@H](CCCCN)C(=O)N2)NC(=O)[C@H](Cc2ccccc2)NC(=O)[C@H](Cc2cccc3ccccc23)NC(=O)[C@H](CC(C)C)NC(=O)[C@H](CCCNC(=N)N)NC(=O)[C@H](Cc2ccc(O)cc2)NC(=O)[C@H](CCCCN)NC1=O` [[Lys16,29; 1-Nal26;Arg30;Nle21]ShK-amide] yielded an IC50 [1] of 9.44 nM, an IC50 [2] of 8.22 nM and an IC50 ([3]; Kv1.3 (IWQ) IC50 (nM, Avg)) of 2.33 nM.

With `CC[C@H](C)[C@@H]1NC(=O)[C@@H](NC(=O)[C@H](CO)NC(=O)[C@@H](N)CCCNC(=N)N)CSSC[C@@H](C(=O)O)NC(=O)[C@H]([C@@H](C)O)NC(=O)CNC(=O)[C@@H]2CSSC[C@@H]3NC(=O)[C@H](CCC(N)=O)NC(=O)[C@H](Cc4ccccc4)NC(=O)[C@H](C)NC(=O)[C@H]([C@@H](C)O)NC(=O)[C@H](CSSC[C@H](NC(=O)[C@H](C)NC(=O)[C@H](CO)NC(=O)[C@H](CC(C)C)NC(=O)[C@H](CCCNC(=N)N)NC(=O)[C@H](Cc4ccc(O)cc4)NC(=O)[C@H](CCCCN)NC(=O)[C@H](CCSC)NC(=O)[C@H](CO)NC(=O)[C@H](Cc4c[nH]cn4)NC(=O)[C@H](CCCCN)NC3=O)C(=O)N[C@@H](CCCNC(=N)N)C(=O)N[C@@H](CCCCN)C(=O)N[C@@H]([C@@H](C)O)C(=O)N2)NC(=O)[C@H](CCCNC(=N)N)NC(=O)[C@H](CO)NC(=O)[C@H](CCCCN)NC(=O)[C@@H]2CCCN2C(=O)[C@H]([C@@H](C)CC)NC(=O)[C@H]([C@@H](C)O)NC(=O)[C@H](CC(=O)O)NC1=O` [[Ala27]ShK] the IC50 [1] was 1.57 nM, the IC50 [2] was 8.78 nM and the IC50 ([3]; Kv1.3 (IWQ) IC50 (nM, Avg)) was 0.207 nM.

`CC[C@H](C)[C@@H]1NC(=O)[C@@H](NC(=O)[C@H](CO)NC(=O)[C@@H](N)CCCNC(=N)N)CSSC[C@@H](C(=O)O)NC(=O)[C@H]([C@@H](C)O)NC(=O)CNC(=O)[C@@H]2CSSC[C@@H]3NC(=O)[C@H](CCCCN)NC(=O)[C@H](Cc4ccccc4)NC(=O)[C@H](C)NC(=O)[C@H]([C@@H](C)O)NC(=O)[C@H](CSSC[C@H](NC(=O)[C@H](Cc4ccccc4)NC(=O)[C@H](CO)NC(=O)[C@H](CC(C)C)NC(=O)[C@H](CCCNC(=N)N)NC(=O)[C@H](Cc4ccc(O)cc4)NC(=O)[C@H](CCCCN)NC(=O)[C@H](CCSC)NC(=O)[C@H](CO)NC(=O)[C@H](Cc4c[nH]cn4)NC(=O)[C@H](CCCCN)NC3=O)C(=O)N[C@@H](CCCNC(=N)N)C(=O)N[C@@H](CCC(=O)O)C(=O)N[C@@H]([C@@H](C)O)C(=O)N2)NC(=O)[C@H](CCCNC(=N)N)NC(=O)[C@H](CO)NC(=O)[C@H](CCCCN)NC(=O)[C@@H]2CCCN2C(=O)[C@H]([C@@H](C)CC)NC(=O)[C@H]([C@@H](C)O)NC(=O)[C@H](CC(=O)O)NC1=O` [[Lys16, Glu30]ShK] was tested, and the IC50 [1] was 0.032 nM, the IC50 [2] was 0.081 nM and the IC50 ([3]; Kv1.3 (IWQ) IC50 (nM, Avg)) was 0.073 nM.

Work on `CCCC[C@@H]1NC(=O)[C@H](CO)NC(=O)[C@H](Cc2c[nH]cn2)NC(=O)[C@H](CCCCN)NC(=O)[C@@H]2CSSC[C@@H]3NC(=O)[C@H]([C@@H](C)O)NC(=O)[C@H](CCCCN)NC(=O)[C@H](CCCNC(=N)N)NC(=O)[C@H](CSSC[C@H](NC(=O)[C@H](CCCNC(=N)N)NC(=O)[C@H](CO)NC(=O)[C@H](CCCCN)NC(=O)[C@@H]4CCCN4C(=O)[C@H]([C@@H](C)CC)NC(=O)[C@H]([C@@H](C)O)NC(=O)[C@H](CC(=O)O)NC(=O)[C@H]([C@@H](C)CC)NC(=O)[C@@H](NC(=O)[C@H](CO)NC(=O)[C@@H](N)CCCNC(=N)N)CSSC[C@@H](C(=O)N[C@@H](Cc4ccc(O)cc4)C(=O)O)NC(=O)[C@H]([C@@H](C)O)NC(=O)CNC3=O)C(=O)N[C@@H]([C@@H](C)O)C(=O)N[C@@H](C)C(=O)N[C@@H](Cc3ccccc3)C(=O)N[C@@H](CCCCN)C(=O)N2)NC(=O)[C@H](Cc2ccccc2)NC(=O)[C@H](CO)NC(=O)[C@H](CC(C)C)NC(=O)[C@H](CCCNC(=N)N)NC(=O)[C@H](Cc2ccc(O)cc2)NC(=O)[C@H](CCCCN)NC1=O` [[Lys16,N1e21]ShK-Tyr] yielded an IC50 [1] of 0.418 nM, an IC50 [2] of 0.485 nM and an IC50 ([3]; Kv1.3 (IWQ) IC50 (nM, Avg)) of 109 nM.

Work on 30kDaPEG-ShK yielded an IC50 [1] of 0.372 nM, an IC50 [2] of 2.42 nM and an IC50 ([3]; read-out: Kv1.3 (IWQ) IC50 (nM, Avg)) of 1.93 nM.

Work on `CC[C@H](C)[C@@H]1NC(=O)[C@@H](NC(=O)[C@H](CO)NC(=O)[C@@H](N)CCCNC(=N)N)CSSC[C@@H](C(N)=O)NC(=O)[C@H]([C@@H](C)O)NC(=O)CNC(=O)[C@@H]2CSSC[C@@H]3NC(=O)[C@H](CCCCN)NC(=O)[C@H](Cc4ccccc4)NC(=O)[C@H](C)NC(=O)[C@H]([C@@H](C)O)NC(=O)[C@H](CSSC[C@H](NC(=O)[C@H](Cc4ccccc4)NC(=O)[C@H](CO)NC(=O)[C@H](CC(C)C)NC(=O)[C@H](CCCNC(=N)N)NC(=O)[C@H](Cc4ccc(O)cc4)NC(=O)[C@H](CCCCN)NC(=O)[C@H](CC(C)C)NC(=O)[C@H](CO)NC(=O)[C@H](Cc4c[nH]cn4)NC(=O)[C@H](CCCCN)NC3=O)C(=O)N[C@@H](CCCNC(=N)N)C(=O)N[C@@H](CCCCN)C(=O)N[C@@H]([C@@H](C)O)C(=O)N2)NC(=O)[C@H](CCCNC(=N)N)NC(=O)[C@H](CO)NC(=O)[C@H](CCCCN)NC(=O)[C@@H]2CCCN2C(=O)[C@H]([C@@H](C)CC)NC(=O)[C@H]([C@@H](C)O)NC(=O)[C@H](CC(=O)O)NC1=O` [[Lys16, Leu21]ShK-amide] yielded an IC50 [1] of 0.889 nM, an IC50 [2] of 0.636 nM and an IC50 ([3]; Kv1.3 (IWQ) IC50 (nM, Avg)) of 0.213 nM.

`CCCC[C@@H]1NC(=O)[C@H](CO)NC(=O)[C@H](Cc2c[nH]cn2)NC(=O)[C@H](CCC(=O)O)NC(=O)[C@@H]2CSSC[C@@H]3NC(=O)[C@H]([C@@H](C)O)NC(=O)[C@H](CCCNC(=N)N)NC(=O)[C@H](CCCNC(=N)N)NC(=O)[C@H](CSSC[C@H](NC(=O)[C@H](CCCNC(=N)N)NC(=O)[C@H](CO)NC(=O)[C@H](CCCCN)NC(=O)[C@@H]4CCCN4C(=O)[C@H]([C@@H](C)CC)NC(=O)[C@H]([C@@H](C)O)NC(=O)[C@H](CC(=O)O)NC(=O)[C@H]([C@@H](C)CC)NC(=O)[C@@H](NC(=O)[C@H](CO)NC(=O)[C@@H](N)CCCNC(=N)N)CSSC[C@@H](C(N)=O)NC(=O)[C@H]([C@@H](C)O)NC(=O)CNC3=O)C(=O)N[C@@H]([C@@H](C)O)C(=O)N[C@@H](C)C(=O)N[C@@H](C)C(=O)N[C@@H](CCCCN)C(=O)N2)NC(=O)[C@H](Cc2ccccc2)NC(=O)[C@H](CO)NC(=O)[C@H](CC(C)C)NC(=O)[C@H](CCCNC(=N)N)NC(=O)[C@H](Cc2ccc(O)cc2)NC(=O)[C@H](CCCCN)NC1=O` showed an IC50 [1] of 1.32 nM, an IC50 [2] of 2.03 nM and an IC50 ([3]; Kv1.3 (IWQ) IC50 (nM, Avg)) of 0.398 nM.

Work on `CC[C@H](C)[C@@H]1NC(=O)[C@@H](NC(=O)[C@H](CO)NC(=O)[C@@H](N)CCCNC(=N)N)CSSC[C@@H](C(=O)O)NC(=O)[C@H]([C@@H](C)O)NC(=O)CNC(=O)[C@@H]2CSSC[C@@H]3NC(=O)[C@H](CCC(N)=O)NC(=O)[C@H](Cc4ccccc4)NC(=O)[C@H](C)NC(=O)[C@H]([C@@H](C)O)NC(=O)[C@H](CSSC[C@H](NC(=O)[C@H](Cc4ccccc4)NC(=O)[C@H](CCCCN)NC(=O)[C@H](CC(C)C)NC(=O)[C@H](CCCNC(=N)N)NC(=O)[C@H](Cc4ccc(O)cc4)NC(=O)[C@H](CCCCN)NC(=O)[C@H](CCSC)NC(=O)[C@H](CO)NC(=O)[C@H](Cc4c[nH]cn4)NC(=O)[C@H](CCCCN)NC3=O)C(=O)N[C@@H](CCCNC(=N)N)C(=O)N[C@@H](CCCCN)C(=O)N[C@@H]([C@@H](C)O)C(=O)N2)NC(=O)[C@H](CCCNC(=N)N)NC(=O)[C@H](CO)NC(=O)[C@H](CCCCN)NC(=O)[C@@H]2CCCN2C(=O)[C@H]([C@@H](C)CC)NC(=O)[C@H]([C@@H](C)O)NC(=O)[C@H](CC(=O)O)NC1=O` [[Lys26]ShK] yielded an IC50 [1] of 0.273 nM, an IC50 [2] of 0.495 nM and an IC50 ([3]; Kv1.3 (IWQ) IC50 (nM, Avg)) of 0.115 nM.

`CC[C@H](C)[C@@H]1NC(=O)[C@@H](NC(=O)[C@H](CO)NC(=O)[C@@H](N)CCCNC(=N)N)CSSC[C@@H](C(N)=O)NC(=O)[C@H]([C@@H](C)O)NC(=O)CNC(=O)[C@@H]2CSSC[C@@H]3NC(=O)[C@H](CCCCN)NC(=O)[C@H](Cc4ccccc4)NC(=O)[C@H](C)NC(=O)[C@H]([C@@H](C)O)NC(=O)[C@H](CSSC[C@H](NC(=O)[C@H](Cc4ccccc4)NC(=O)[C@H](CO)NC(=O)[C@H](CC(C)C)NC(=O)[C@H](CCCNC(=N)N)NC(=O)[C@H](Cc4ccc(O)cc4)NC(=O)[C@H](CCCCN)NC(=O)[C@H](CO)NC(=O)[C@H](CO)NC(=O)[C@H](Cc4c[nH]cn4)NC(=O)[C@H](CCCCN)NC3=O)C(=O)N[C@@H](CCCNC(=N)N)C(=O)N[C@@H](CCCCN)C(=O)N[C@@H]([C@@H](C)O)C(=O)N2)NC(=O)[C@H](CCCNC(=N)N)NC(=O)[C@H](CO)NC(=O)[C@H](CCCCN)NC(=O)[C@@H]2CCCN2C(=O)[C@H]([C@@H](C)CC)NC(=O)[C@H]([C@@H](C)O)NC(=O)[C@H](CC(=O)O)NC1=O` [[Lys16, Ser21]ShK-amide] gave an IC50 [1] of 1.45 nM, an IC50 [2] of 1.71 nM and an IC50 ([3]; Kv1.3 (IWQ) IC50 (nM, Avg)) of 0.068 nM.

From patent publication US20120121591A1 (priority 2009, published 2012)
